For the data set, the system named is d-U937 cells. Description: Cell viability: MTT assay. The following applies: 1 μg/mL. The class given is cell-based, human. How it is done: Differentiated U937 cells were pre-incubated with each test compound (final concentration 1 μg/mL or 10 μg/mL in 200 μL media indicated below) under two protocols: the first for 4 hr in 5% FCS RPMI1640 media and the second in 10% FCS RPMI1640 media for 24 h. The supernatant was replaced with new media (200 μL) and MTT stock solution (10 μL, 5 mg/mL) was added to each well. After incubation for 1 hr the media were removed, DMSO (200 μL) was added to each well and the plates were shaken lightly for 1 hr prior to reading the absorbance at 550 nm. The percentage loss of cell viability was calculated for each well relative to vehicle (0.5% DMSO) treatment. Consequently an apparent increase in cell viability for drug treatment relative to vehicle is tabulated as a negative percentage.

5 molecules from patent US9993478B2, “1-pyrazolyl-3-(4-((2-anilinopyrimidin-4-yl) oxy) napththalen-1-yl) ureas as P38 MAP knase inhibitors” (Respivert Ltd., priority 2011, dated 2018) can be followed below.

As to `Cc1ccc(-n2nc(C(C)(C)C)cc2NC(=O)Nc2ccc(Oc3ccnc(Nc4cccc(Cl)c4)n3)c3ccccc23)cc1` [Example 13, 1-(3-(tert-butyl)-1-(p-tolyl)-1H-pyrazol-5-yl)-3-(4-((2-((3-chlorophenyl)amino)pyrimidin-4-yl)oxy)naphthalen-1-yl)urea], the “MTT Assay Cell viability at time point in d-U937 Cells 4 h” value is “−ve (−ve and +ve indicate the value is below and above respectively, the no significant effect threshold defined as 30% inhibition at 1 μg/mL at the time point indicated)”; the “MTT Assay Cell viability at time point in d-U937 Cells 24 h” value was “−ve (−ve and +ve indicate the value is below and above respectively, the no significant effect threshold defined as 30% inhibition at 1 μg/mL at the time point indicated)”.

Consider `Cc1ccc(-n2nc(C(C)(C)C)cc2NC(=O)Nc2ccc(Oc3ccnc(Nc4cc(C)ccc4C)n3)c3ccccc23)cc1` [Example 10, 1-(3-(tert-butyl)-1-(p-tolyl)-1H-pyrazol-5-yl)-3-(4-((2-((2,5-dimethylphenyl)amino)pyrimidin-4-yl)oxy)naphthalen-1-yl)urea], for which the “MTT Assay Cell viability at time point in d-U937 Cells 4 h” value was “−ve (−ve and +ve indicate the value is below and above respectively, the no significant effect threshold defined as 30% inhibition at 1 μg/mL at the time point indicated)”; the “MTT Assay Cell viability at time point in d-U937 Cells 24 h” value is “−ve (−ve and +ve indicate the value is below and above respectively, the no significant effect threshold defined as 30% inhibition at 1 μg/mL at the time point indicated)”.

As for `Cc1ccc(-n2nc(C(C)(C)C)cc2NC(=O)Nc2ccc(Oc3ccnc(Nc4ccccc4Cl)n3)c3ccccc23)cc1` [Example 19, 1-(3-(tert-butyl)-1-(p-tolyl)-1H-pyrazol-5-yl)-3-(4-((2-((2-chlorophenyl)amino)pyrimidin-4-yl)oxy)naphthalen-1-yl)urea], the “MTT Assay Cell viability at time point in d-U937 Cells 4 h” value was “−ve (−ve and +ve indicate the value is below and above respectively, the no significant effect threshold defined as 30% inhibition at 1 μg/mL at the time point indicated)”; the “MTT Assay Cell viability at time point in d-U937 Cells 24 h” value is “−ve (−ve and +ve indicate the value is below and above respectively, the no significant effect threshold defined as 30% inhibition at 1 μg/mL at the time point indicated)”.

Consider `CCOc1ccc(Nc2nccc(Oc3ccc(NC(=O)Nc4cc(C(C)(C)C)nn4-c4ccc(C)cc4)c4ccccc34)n2)cc1` [Example 22, 1-(3-(tert-butyl)-1-(p-tolyl)-1H-pyrazol-5-yl)-3-(4-((2-((4-ethoxyphenyl)amino)pyrimidin-4-yl)oxy)naphthalen-1-yl)urea], for which the “MTT Assay Cell viability at time point in d-U937 Cells 4 h” value was “−ve (−ve and +ve indicate the value is below and above respectively, the no significant effect threshold defined as 30% inhibition at 1 μg/mL at the time point indicated)”; the “MTT Assay Cell viability at time point in d-U937 Cells 24 h” value was “−ve (−ve and +ve indicate the value is below and above respectively, the no significant effect threshold defined as 30% inhibition at 1 μg/mL at the time point indicated)”.

For the molecule `Cc1ccc(-n2nc(C(C)(C)C)cc2NC(=O)Nc2ccc(Oc3ccnc(Nc4ccc(O)cc4F)n3)c3ccccc23)cc1` [Example 30, 1-(3-(tert-butyl)-1-(p-tolyl)-1H-pyrazol-5-yl)-3-(4-((2-((2-fluoro-4-hydroxyphenyl)amino)pyrimidin-4-yl)oxy)naphthalen-1-yl)urea], the “MTT Assay Cell viability at time point in d-U937 Cells 4 h” value is “−ve (−ve and +ve indicate the value is below and above respectively, the no significant effect threshold defined as 30% inhibition at 1 μg/mL at the time point indicated)”; the “MTT Assay Cell viability at time point in d-U937 Cells 24 h” value is “−ve (−ve and +ve indicate the value is below and above respectively, the no significant effect threshold defined as 30% inhibition at 1 μg/mL at the time point indicated)”.
